In brackets after ≈: the same amount, converted by molar mass. Activity calls are given as the source filed them. No cut-off for these calls is given here.
Experiments:
NRK [1] = experiment: Inhibition of protein synthesis in rat NRK cells expressing K-ras assessed as L-[4,5-3H]leucine incorporation after 1 hr; format: functional, cell-based
NRK [2] = experiment: Inhibition of DNA synthesis in rat NRK cells expressing K-ras assessed as [methyl-3H]thymidine incorporation after 1 hr; format: functional, cell-based
NRK [3] = experiment: Inhibition of RNA synthesis in rat NRK cells expressing K-ras assessed as [5-3H]uridine incorporation after 1 hr; format: functional, cell-based
NRK [4] = experiment: Decrease in cellular Ras protein level in rat NRK cells expressing K-ras at 2.5 ng/mL after 1 to 3 days by immunoblotting; format: functional, cell-based
NRK [5] = experiment: Induction of morphological changes in rat NRK cells expressing K-ras assessed as flat morphology and cytoskeletal organization at 10 to 30 ng/mL after 1 day; format: functional, cell-based
NRK [6] = experiment: Induction of morphological changes in rat NRK cells expressing K-ras assessed as flat morphology and cytoskeletal organization at 10 to 30 ng/mL after 3 days; format: functional, cell-based
NRK [7] = experiment: Growth inhibition of rat NRK cells expressing K-ras; format: functional, cell-based
NIH3T3 [8] = experiment: Growth inhibition of mouse NIH/3T3 cells expressing K-ras; format: functional, cell-based
NIH3T3 [9] = experiment: Growth inhibition of mouse NIH/3T3 cells expressing H-ras; format: functional, cell-based
NIH3T3 [10] = experiment: Growth inhibition of mouse NIH/3T3 cells expressing N-ras; format: functional, cell-based
NRK [11] = experiment: Growth inhibition of rat NRK cells; format: cell-based
[12] = Growth inhibition of mouse NIH/3T3 cells; format: cell-based; details: NIH3T3
NRK [13] = experiment: Induction of morphological changes in rat NRK cells expressing K-ras assessed as flat morphology; format: functional, cell-based
NRK [14] = experiment: Induction of morphological changes in rat NRK cells expressing K-ras-ts proto-oncogene assessed as flat morphology; format: functional, cell-based

## COc1ccc([C@@]23Oc4cc(OC)cc(OC)c4[C@]2(O)c2nc4n(c(=O)c2[C@H]3c2ccccc2)CCC4)cc1
NRK [1]
  Activity: Active
NRK [2]
  Activity: inactive
NRK [3]
  Activity: inactive
NRK [4]
  Activity: Active
NRK [5]
  Activity: Active
NRK [6]
  Activity: Active
NRK [7]
  IC50: 81 ng/mL (≈ 0.154 µM)
NIH3T3 [8]
  IC50: 8.9 ng/mL (≈ 0.017 µM)
NIH3T3 [9]
  IC50: 7.8 ng/mL (≈ 0.0149 µM)
NIH3T3 [10]
  IC50: 8 ng/mL (≈ 0.0153 µM)
NRK [11]
  IC50: 9.8 ng/mL (≈ 0.0187 µM)
[12]
  IC50: 7.6 ng/mL (≈ 0.0145 µM)

## CC[C@@]12CC(C(=O)OC)=C3Nc4cc5c(cc4[C@@]34CCN(C[C@H]3O[C@H]31)[C@@H]24)[C@@H]1[C@H](O5)[C@@H](O)[C@@]2(CC)CC(C(=O)OC)=C3Nc4c(cc(O)c(OC)c4OC)[C@@]34CCN1[C@@H]24
NRK [13]
  Activity: Active
NRK [14]
  Activity: Active

## COc1c(C=O)c(O)cc2c1C(=O)c1ccccc1C2=O
NRK [13]
  Activity: Active
NRK [14]
  Activity: Active

## COc1ccc([C@@]23Oc4cc(OC)cc(OC)c4[C@]2(O)C2=C(C(=O)N4CCC[C@H]4N2)[C@H]3c2ccccc2)cc1 [AGLAIASTATIN]
NRK [1]
  Activity: Active
NRK [2]
  Activity: inactive
NRK [3]
  Activity: inactive
NRK [4]
  Activity: Active
NRK [5]
  Activity: Active
NRK [6]
  Activity: Active
NRK [7]
  IC50: 2.8 ng/mL (≈ 0.00532 µM)
NIH3T3 [8]
  IC50: 5.6 ng/mL (≈ 0.0106 µM)
NIH3T3 [9]
  IC50: 1 ng/mL (≈ 0.0019 µM)
NIH3T3 [10]
  IC50: 1.8 ng/mL (≈ 0.00342 µM)
NRK [11]
  IC50: 2.1 ng/mL (≈ 0.00399 µM)
[12]
  IC50: 4.1 ng/mL (≈ 0.00779 µM)

## CC[C@@]12C=CCN3CC[C@]4(C(=C(C(=O)OC)C1)Nc1cc5c(cc14)[C@H]1[C@@H](O5)[C@H](O)[C@]4(CC)CC(C(=O)OC)=C5Nc6c(cc(O)c(OC)c6OC)[C@@]56CCN1[C@H]46)[C@H]32
NRK [13]
  Activity: Active
NRK [14]
  Activity: Active

## COc1ccc([C@@]23Oc4cc(OC)cc(OC)c4[C@]2(O)[C@H](O)C[C@H]3c2ccccc2)cc1 [ROCAGLAOL]
NRK [1]
  Activity: Active
NRK [2]
  Activity: inactive
NRK [3]
  Activity: inactive
NRK [4]
  Activity: Active
NRK [5]
  Activity: Active
NRK [6]
  Activity: Active
NRK [7]
  IC50: 5.8 ng/mL (≈ 0.0133 µM)
NIH3T3 [8]
  IC50: 7 ng/mL (≈ 0.0161 µM)
NIH3T3 [9]
  IC50: 5.3 ng/mL (≈ 0.0122 µM)
NIH3T3 [10]
  IC50: 7.5 ng/mL (≈ 0.0173 µM)
NRK [11]
  IC50: 10 ng/mL (≈ 0.023 µM)
[12]
  IC50: 2 ng/mL (≈ 0.0046 µM)

— ChEMBL document CHEMBL1158266, “Cyclopentabenzofuran lignan protein synthesis inhibitors from Aglaia odorata” (J Nat Prod, 1996)
